Data taken from EP2951180B1, “2,6,7,8 SUBSTITUTED PURINES AS HDM2 INHIBITORS” (Merck Sharp & Dohme Corp., priority 2013, dated 2014).

Target: T1, HDM2 (Homo sapiens, UniProt Q00987)
T1 construct: Thioredoxin (N); made in house; host or cells: E. coli strain BL21(DE3)Rosetta
Assay: HDM2 FRET assay (inhibition of binding of FITC labeled p53-pocket peptide to HDM2)
Conditions: Table 6; read-out: FRET IC50
Method in brief: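 Compounds were tested in 10-point serial dilution against 0.5 nM recombinant HDM2 binding 3 nM fluorescein-labeled p53-pocket peptide. Detection used 0.25 nM terbium cryptate anti-6xHis antibody in PBS buffer containing 0.01% BSA and 0.01% Tween-20.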

T1 sequence (Q00987 17-125): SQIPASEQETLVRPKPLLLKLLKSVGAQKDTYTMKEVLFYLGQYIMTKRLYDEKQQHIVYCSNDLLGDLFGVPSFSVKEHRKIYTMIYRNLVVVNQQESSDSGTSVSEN

Structure (SMILES)	IC50 [nM]
Cc1cccc(-c2nc3ncnc(NC(CC(=O)O)C4CC4)c3n2Cc2ccc(C(F)(F)F)cc2)c1 (centres unmarked) [Example 6.18, 3-cyclopropyl-3-({8-(3-methylphenyl)-7-[4-(trifluoromethyl)benzyl]-7H-purin-6-yl}amino)propanoic acid]	5190
Cc1cccc(-c2nc3nc(C(=O)O)nc(NC4CCC(C)CC4)c3n2Cc2ccc(C(F)(F)F)cc2)c1 (centres unmarked) [Example 6.19, 6-[(4-methylcyclohexyl)amino]-8-(3-methylphenyl)-7-[4-(trifluoromethyl)benzyl]-7H-purine-2-carboxylic acid]	869
Cc1cccc(-c2nc3nc(C(=O)O)nc(NC4CCCC(C)C4)c3n2Cc2ccc(C(F)(F)F)cc2)c1 (centres unmarked) [Example 6.20, 6-[(3-methylcyclohexyl)amino]-8-(3-methylphenyl)-7-[4-(trifluoromethyl)benzyl]-7H-purine-2-carboxylic acid]	567
Cc1cccc(-c2nc3nc(C(=O)O)nc(NC4CCCC4C)c3n2Cc2ccc(C(F)(F)F)cc2)c1 (centres unmarked) [Example 6.21, 6-[(2-methylcyclopentyl)amino]-8-(3-methylphenyl)-7-[4-(trifluoromethyl)benzyl]-7H-purine-2-carboxylic acid]	422
Cc1cccc(-c2nc3nc(C(=O)O)nc(NC4CCCC4)c3n2Cc2ccc(C(F)(F)F)cc2)c1 [Example 6.22, 6-(cyclopentylamino)-8-(3-methylphenyl)-7-[4-(trifluoromethyl)benzyl]-7H-purine-2-carboxylic acid]	649
Cc1cccc(-c2nc3nc(C(=O)O)nc(N4CCCC4)c3n2Cc2ccc(C(F)(F)F)cc2)c1 [Example 6.23, 8-(3-methylphenyl)-6-pyrrolidin-1-yl-7-[4-(trifluoromethyl)benzyl]-7H-purine-2-carboxylic acid]	8270
Cc1cccc(-c2nc3nc(C(=O)O)nc(NC(C4CC4)C4CC4)c3n2Cc2ccc(C(F)(F)F)cc2)c1 [Example 6.24, 6-[(dicyclopropylmethyl)amino]-8-(3-methylphenyl)-7-[4-(trifluoromethyl)benzyl]-7H-purine-2-carboxylic acid]	329
Cc1cccc(-c2nc3nc(C(=O)O)nc(NCCc4ccccc4)c3n2Cc2ccc(C(F)(F)F)cc2)c1 [Example 6.25, 8-(3-methylphenyl)-6-[(2-phenylethyl)amino]-7-[4-(trifluoromethyl)benzyl]-7H-purine-2-carboxylic acid]	5080
Cc1cccc(-c2nc3nc(C(=O)O)nc(N[C@@H](C)c4cccc(Cl)c4)c3n2Cc2ccc(C(F)(F)F)cc2)c1 [Example 6.26, 6-{[(1S)-1-(3-chlorophenyl)ethyl]amino}-8-(3-methylphenyl)-7-[4-(trifluoromethyl)benzyl]-7H-purine-2-carboxylic acid]	6970
Cc1cccc(-c2nc3nc(C(=O)O)nc(N[C@H](C)c4cccc(Cl)c4)c3n2Cc2ccc(C(F)(F)F)cc2)c1 [Example 6.27, 6-{[(1R)-1-(3-chlorophenyl)ethyl]amino}-8-(3-methylphenyl)-7-[4-(trifluoromethyl)benzyl]-7H-purine-2-carboxylic acid]	2360
Cc1cccc(-c2nc3nc(C(=O)O)nc(NC4CCCCC4)c3n2Cc2ccc(C(F)(F)F)cc2)c1 [Example 6.28, 6-(cyclohexylamino)-8-(3-methylphenyl)-7-[4-(trifluoromethyl)benzyl]-7H-purine-2-carboxylic acid]	589
Cc1cccc(-c2nc3nc(C(=O)O)nc(NCc4ccccc4)c3n2Cc2ccc(C(F)(F)F)cc2)c1 [Example 6.29, 6-(benzylamino)-8-(3-methylphenyl)-7-[4-(trifluoromethyl)benzyl]-7H-purine-2-carboxylic acid]	1770
Cc1cccc(-c2nc3nc(C(=O)O)nc(N[C@H](C)c4ccccc4)c3n2Cc2ccc(C(F)(F)F)cc2)c1 [Example 6.30, 8-(3-methylphenyl)-6-{[(1R)-1-phenylethyl]amino}-7-[4-(trifluoromethyl)benzyl]-7H-purine-2-carboxylic acid]	1490
Cc1cccc(-c2nc3nc(C(=O)O)nc(N[C@@H](C)c4ccccc4)c3n2Cc2ccc(C(F)(F)F)cc2)c1 [Example 6.31, 8-(3-methylphenyl)-6-{[(1S)-1-phenylethyl]amino}-7-[4-(trifluoromethyl)benzyl]-7H-purine-2-carboxylic acid]	4300
Cc1cccc(-c2nc3nc(C(=O)O)nc(NC(C)C4CCCC4)c3n2Cc2ccc(C(F)(F)F)cc2)c1 (centres unmarked) [Example 6.32, 6-[(1-cyclopentylethyl)amino]-8-(3-methylphenyl)-7-[4-(trifluoromethyl)benzyl]-7H-purine-2-carboxylic acid]	373
Cc1cccc(-c2nc3nc(C(=O)O)nc(NC4CCC(C)CC4C)c3n2Cc2ccc(C(F)(F)F)cc2)c1 (centres unmarked) [Example 6.33, 6-[(2,4-dimethylcyclohexyl)amino]-8-(3-methylphenyl)-7-[4-(trifluoromethyl)benzyl]-7H-purine-2-carboxylic acid]	305
Cc1cccc(-c2nc3nc(C(=O)O)nc(NC4CCC(C)CC4C)c3n2Cc2ccc(C(F)(F)F)cc2)c1 (centres unmarked) [Example 6.34, 6-[(2,4-dimethylcyclohexyl)amino]-8-(3-methylphenyl)-7-[4-(trifluoromethyl)benzyl]-7H-purine-2-carboxylic acid]	1140
Cc1cccc(-c2nc3nc(C(=O)O)nc(NC4CCC(CNC(=O)OC(C)(C)C)CC4)c3n2Cc2ccc(C(F)(F)F)cc2)c1 (centres unmarked) [Example 6.35, 6-[(4-{[(tert-butoxycarbonyl)amino]methyl}cyclohexyl)amino]-8-(3-methylphenyl)-7-[4-(trifluoromethyl)benzyl]-7H-purine-2-carboxylic acid]	2340
Cc1cccc(-c2nc3nc(C(=O)O)nc(NCC4CC4)c3n2Cc2ccc(C(F)(F)F)cc2)c1 [Example 6.36, 6-[(cyclopropylmethyl)amino]-8-(3-methylphenyl)-7-[4-(trifluoromethyl)benzyl]-7H-purine-2-carboxylic acid]	670
Cc1cccc(-c2nc3nc(C(=O)O)nc(NC(C)C4CC4C)c3n2Cc2ccc(C(F)(F)F)cc2)c1 (centres unmarked) [Example 6.37, 6-{[1-(2-methylcyclopropyl)ethyl]amino}-8-(3-methylphenyl)-7-[4-(trifluoromethyl)benzyl]-7H-purine-2-carboxylic acid]	360
Cc1cccc(-c2nc3nc(C(=O)O)nc(NC(C)C4CC4C)c3n2Cc2ccc(C(F)(F)F)cc2)c1 (centres unmarked) [Example 6.38, 6-{[1-(2-methylcyclopropyl)ethyl]amino}-8-(3-methylphenyl)-7-[4-(trifluoromethyl)benzyl]-7H-purine-2-carboxylic acid]	530
Cc1cccc(-c2nc3nc(C(=O)O)nc(NC(C)C(C)(C)O)c3n2Cc2ccc(C(F)(F)F)cc2)c1 (centres unmarked) [Example 6.39, 6-[(2-hydroxy-1,2-dimethylpropyl)amino]-8-(3-methylphenyl)-7-[4-(trifluoromethyl)benzyl]-7H-purine-2-carboxylic acid]	2260
Cc1cccc(-c2nc3nc(C(=O)O)nc(NC4CCC(CO)CC4)c3n2Cc2ccc(C(F)(F)F)cc2)c1 (centres unmarked) [Example 6.40, 6-{[4-(hydroxymethyl)cyclohexyl]amino}-8-(3-methylphenyl)-7-[4-(trifluoromethyl)benzyl]-7H-purine-2-carboxylic acid]	925
